# Experimental data published in patent US20250145665A1, “MACROCYCLIC PEPTIDES USEFUL AS MODULATORS OF TNF ALPHA” (Bristol-Myers Squibb Company, priority 2023, published 2025).
# Starred links: 1 amine or outer side, 2 acyl side, 3 side chain; linkers in the order of their positions; H or OH if unused. Positions of bridges follow the written chain, without caps; N, C: chain ends. Non-standard residues stand in square brackets, D forms with d. Residues, ends and D or L forms follow the SMILES beside them. *: point of attachment. X77 = Cc1ccc(C(=O)O)cc1C(=O)Nc1ccc(-c2ccc(C[C@H](N[*:1])C(=O)[*:2])cc2)cc1; X5 = Cn1nc(C(=O)Nc2ccc(-c3ccc(C[C@H](N[*:1])C(=O)[*:2])cc3)cc2)c2ccccc21; Bip(4'-NH) = O=C([C@H](Cc1ccc(-c2ccc(N[*:3])cc2)cc1)N[*:1])[*:2]; Bip(4'-CONHMe) = CNC(=O)c1ccc(-c2ccc(C[C@H](N)C(=O)O)cc2)cc1; Indazole3carbonyl(1-CH2COOH) = O=C(O)Cn1nc(C(=O)*)c2ccccc21; Bip(4'-COOH) = N[C@@H](Cc1ccc(-c2ccc(C(=O)O)cc2)cc1)C(=O)O; Bip(4'-NHAc) = CC(=O)Nc1ccc(-c2ccc(C[C@H](N)C(=O)O)cc2)cc1; X87 = N=C(NCCC[C@@H](N[*:1])C(=O)[*:2])NCc1ccc(C(=O)O)cc1; X29 = N=C(NCCC[C@@H](N[*:1])C(=O)[*:2])NCCc1ccc(F)c(F)c1; X19 = N=C(NCCC[C@@H](N[*:1])C(=O)[*:2])NCc1ccc2ccccc2c1; X18 = N=C(NCCC[C@@H](N[*:1])C(=O)[*:2])NCCc1ccc(O)cc1; Ala(morpholin-4-yl) = N[C@@H](CN1CCOCC1)C(=O)O; Bip = N[C@@H](Cc1ccc(-c2ccccc2)cc1)C(=O)O; hhPhe = N[C@@H](CCCc1ccccc1)C(=O)O; 2Pal = N[C@@H](Cc1ccccn1)C(=O)O; 3Pal = N[C@@H](Cc1cccnc1)C(=O)O; Cha = N[C@@H](CC1CCCCC1)C(=O)O; Chg = N[C@H](C(=O)O)C1CCCCC1; Pip = O=C(O)[C@@H]1CCCCN1; Sar = CNCC(=O)O
# Biological target: TNFα (Homo sapiens, UniProt P01375)
# Sequence (P01375 77-233 limits assumed): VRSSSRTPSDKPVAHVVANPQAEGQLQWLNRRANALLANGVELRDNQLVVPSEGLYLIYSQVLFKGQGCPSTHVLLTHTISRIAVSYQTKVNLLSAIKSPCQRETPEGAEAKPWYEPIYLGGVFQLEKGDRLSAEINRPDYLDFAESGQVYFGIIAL
# Experiment: TNF-Induced HEK-Blue Assay
# Assay type: cell-based
# Details: not given
row,Structure (SMILES),IC50 [nM]
1,CC(C)C[C@@H]1NC(=O)[C@H](CCCNC(=N)N)NC(=O)[C@H](C(C)C)NC(=O)[C@@H]2CCCN2C(=O)[C@H](C(C)C)NC(=O)[C@@H](CCCNC(=N)NCc2ccc3ccccc3c2)NC(=O)[C@H](CC(=O)O)NC(=O)[C@@H]2CCCN2C(=O)CN(C)C(=O)[C@H](Cc2ccc(-c3ccc(NC(=O)c4nn(CC(=O)O)c5ccccc45)cc3)cc2)NC(=O)[C@H](Cc2ccc(-c3ccccc3)cc2)NC(=O)[C@H](CN2CCOCC2)NC(=O)CSC[C@@H](C(=O)NCC(N)=O)NC1=O [Example 468] ({CH2CO}-[Ala(morpholin-4-yl)][Bip][Bip(4'-NH)](Indazole3carbonyl(1-CH2COOH))[Sar]PD[X19]VPVRLCG-NH2; thioether N-13),< 50
2,CC(C)C[C@@H]1NC(=O)[C@H](CCCNC(=N)N)NC(=O)[C@H](C(C)C)NC(=O)[C@@H]2CCCN2C(=O)[C@H](C(C)C)NC(=O)[C@@H](CCCNC(=N)NCCc2ccc(O)cc2)NC(=O)[C@H](CC(=O)O)NC(=O)[C@@H]2CCCN2C(=O)CN(C)C(=O)[C@H](Cc2ccc(-c3ccc(NC(=O)c4nn(CC(=O)O)c5ccccc45)cc3)cc2)NC(=O)[C@H](Cc2ccc(-c3ccccc3)cc2)NC(=O)[C@H](CN2CCOCC2)NC(=O)CSC[C@@H](C(=O)NCC(N)=O)NC1=O [Example 403] ({CH2CO}-[Ala(morpholin-4-yl)][Bip][Bip(4'-NH)](Indazole3carbonyl(1-CH2COOH))[Sar]PD[X18]VPVRLCG-NH2; thioether N-13),50 to 200
3,CC(C)C[C@@H]1NC(=O)[C@H](CCCNC(=N)N)NC(=O)[C@H](C(C)C)NC(=O)[C@@H]2CCCN2C(=O)[C@H](C(C)C)NC(=O)[C@@H](CCCNC(=N)NCc2ccc(C(=O)O)cc2)NC(=O)[C@H](CC(=O)O)NC(=O)[C@@H]2CCCN2C(=O)CN(C)C(=O)[C@H](Cc2ccc(-c3ccc(NC(=O)c4nn(CC(=O)O)c5ccccc45)cc3)cc2)NC(=O)[C@H](Cc2ccc(-c3ccccc3)cc2)NC(=O)[C@H](CN2CCOCC2)NC(=O)CSC[C@@H](C(=O)NCC(N)=O)NC1=O [Example 507] ({CH2CO}-[Ala(morpholin-4-yl)][Bip][Bip(4'-NH)](Indazole3carbonyl(1-CH2COOH))[Sar]PD[X87]VPVRLCG-NH2; thioether N-13),< 50
4,CC(C)C[C@@H]1NC(=O)[C@H](CCCNC(=N)N)NC(=O)[C@H](C(C)C)NC(=O)[C@@H]2CCCN2C(=O)[C@H](C(C)C)NC(=O)[C@@H](CCCNC(=N)NCCc2ccc(F)c(F)c2)NC(=O)[C@H](CC(=O)O)NC(=O)[C@@H]2CCCN2C(=O)CN(C)C(=O)[C@H](Cc2ccc(-c3ccc(NC(=O)c4nn(CC(=O)O)c5ccccc45)cc3)cc2)NC(=O)[C@H](Cc2ccc(-c3ccccc3)cc2)NC(=O)[C@H](CN2CCOCC2)NC(=O)CSC[C@@H](C(=O)NCC(N)=O)NC1=O [Example 423] ({CH2CO}-[Ala(morpholin-4-yl)][Bip][Bip(4'-NH)](Indazole3carbonyl(1-CH2COOH))[Sar]PD[X29]VPVRLCG-NH2; thioether N-13),< 50

# Same assay, conditions: HEK-Blue-CD40L cells, NF-kB-driven secreted alkaline phosphatase reporter; TNFα 0.5 ng/ml; 18 h; read-out: TNF induced HEK-Blue assay IC50 value
row,Structure (SMILES),IC50 [nM]
1,CC(C)C[C@@H]1NC(=O)[C@H](CCCNC(=N)N)NC(=O)[C@H](C(C)C)NC(=O)[C@@H]2CCCN2C(=O)[C@H](C(C)C)NC(=O)[C@H](CCCNC(=N)N)NC(=O)[C@H](CC(=O)O)NC(=O)[C@@H]2CCCN2C(=O)CN(C)C(=O)[C@H](Cc2ccc(-c3ccccc3)cc2)NC(=O)[C@H](Cc2ccc(-c3ccccc3)cc2)NC(=O)[C@H](CCCc2ccccc2)NC(=O)CSC[C@@H](C(=O)NCC(N)=O)NC1=O [Example 12] ({CH2CO}-[hhPhe][Bip][Bip][Sar]PDRVPVRLCG-NH2; thioether N-13),200 to 2000
2,CC(C)C[C@@H]1NC(=O)[C@H](CCCNC(=N)N)NC(=O)[C@H](C(C)C)NC(=O)[C@@H]2CCCN2C(=O)[C@H](C(C)C)NC(=O)[C@@H](CCCNC(=N)N)NC(=O)[C@H](CC(=O)O)NC(=O)[C@@H]2CCCN2C(=O)CN(C)C(=O)[C@H](Cc2ccc(-c3ccc(NC(=O)c4nn(C)c5ccccc45)cc3)cc2)NC(=O)[C@H](Cc2ccc(-c3ccccc3)cc2)NC(=O)[C@H](CN2CCOCC2)NC(=O)CSC[C@@H](C(=O)NCC(N)=O)NC1=O [Example 338] ({CH2CO}-[Ala(morpholin-4-yl)][Bip][X5][Sar]PD[dR]VPVRLCG-NH2; thioether N-13),< 50

# Further lines, results first:
row,IC50 [nM],Structure (SMILES)
1,50 to 200,CC(C)C[C@@H]1NC(=O)[C@H](Cc2ccccc2)NC(=O)[C@H](C(C)C)NC(=O)[C@@H]2CCCN2C(=O)[C@H](C(C)C)NC(=O)[C@@H](CCCNC(=N)N)NC(=O)[C@H](CC(=O)O)NC(=O)[C@H](Cc2cnc[nH]2)NC(=O)CN(C)C(=O)[C@H](Cc2ccc(-c3ccccc3)cc2)NC(=O)[C@H](Cc2ccc(-c3ccccc3)cc2)NC(=O)[C@H](CN2CCOCC2)NC(=O)CSC[C@@H](C(=O)NCC(N)=O)NC1=O [Example 231] ({CH2CO}-[Ala(morpholin-4-yl)][Bip][Bip][Sar]HD[dR]VPVFLCG-NH2; thioether N-13)
2,200 to 2000,CC(C)C[C@@H]1NC(=O)[C@H](CCCNC(=N)N)NC(=O)[C@H](C(C)C)NC(=O)[C@@H]2CCCN2C(=O)[C@H](Cc2cccnc2)NC(=O)[C@@H](CCCNC(=N)N)NC(=O)[C@H](CC(=O)O)NC(=O)[C@H](Cc2ccc(O)cc2)NC(=O)CN(C)C(=O)[C@H](Cc2ccc(-c3ccccc3)cc2)NC(=O)[C@H](Cc2ccc(-c3ccccc3)cc2)NC(=O)[C@H](CN2CCOCC2)NC(=O)CSC[C@@H](C(=O)NCC(N)=O)NC1=O [Example 117] ({CH2CO}-[Ala(morpholin-4-yl)][Bip][Bip][Sar]YD[dR][3Pal]PVRLCG-NH2; thioether N-13)
3,< 50,CC(=O)Nc1ccc(-c2ccc(C[C@@H]3NC(=O)[C@H](Cc4ccc(-c5ccccc5)cc4)NC(=O)[C@H](CN4CCOCC4)NC(=O)CSC[C@@H](C(=O)NCC(N)=O)NC(=O)[C@H](CC(C)C)NC(=O)[C@H](Cc4ccccn4)NC(=O)[C@H](C(C)C)NC(=O)[C@@H]4CCCN4C(=O)[C@H](C(C)C)NC(=O)[C@@H](CCCNC(=N)N)NC(=O)[C@H](CC(=O)O)NC(=O)[C@H](Cc4ccc(O)cc4)NC(=O)CN(C)C3=O)cc2)cc1 [Example 222] ({CH2CO}-[Ala(morpholin-4-yl)][Bip][Bip(4'-NHAc)][Sar]YD[dR]VPV[2Pal]LCG-NH2; thioether N-13)
4,< 50,CC[C@H](C)[C@@H]1NC(=O)[C@@H](CCCNC(=N)N)NC(=O)[C@H](CC(=O)O)NC(=O)[C@H](Cc2cnc[nH]2)NC(=O)CN(C)C(=O)[C@H](Cc2ccc(-c3ccc(NC(C)=O)cc3)cc2)NC(=O)[C@H](Cc2ccc(-c3ccc(C(=O)NC)cc3)cc2)NC(=O)[C@H](CC2CCCCC2)NC(=O)CSC[C@@H](C(=O)NCC(N)=O)NC(=O)[C@H](CC(C)C)NC(=O)[C@H](Cc2cnc[nH]2)NC(=O)[C@H](C(C)C)NC(=O)[C@@H]2CCCN2C1=O [Example 342] ({CH2CO}-[Cha][Bip(4'-CONHMe)][Bip(4'-NHAc)][Sar]HD[dR]IPVHLCG-NH2; thioether N-13)
5,200 to 2000,CC(C)C[C@@H]1NC(=O)[C@H](CCCNC(=N)N)NC(=O)[C@H](C(C)C)NC(=O)[C@@H]2CCCCN2C(=O)[C@H](C(C)C)NC(=O)[C@H](CCCNC(=N)N)NC(=O)[C@H](CC(=O)O)NC(=O)[C@@H]2CCCN2C(=O)CN(C)C(=O)[C@H](Cc2ccc(-c3ccccc3)cc2)NC(=O)[C@H](Cc2ccc(-c3ccccc3)cc2)NC(=O)[C@H](Cc2ccccc2)NC(=O)CSC[C@@H](C(=O)NCC(N)=O)NC1=O [Example 41] ({CH2CO}-F[Bip][Bip][Sar]PDRV[Pip]VRLCG-NH2; thioether N-13)
6,< 50,CC(=O)Nc1ccc(-c2ccc(C[C@@H]3NC(=O)[C@H](Cc4ccc(-c5ccc(C(=O)O)cc5)cc4)NC(=O)[C@H](CN4CCOCC4)NC(=O)CSC[C@@H](C(=O)NCC(N)=O)NC(=O)[C@H](CC(C)C)NC(=O)[C@H](CCCNC(=N)N)NC(=O)[C@H](C)NC(=O)[C@@H]4CCCN4C(=O)[C@H](C(C)C)NC(=O)[C@@H](CCCNC(=N)N)NC(=O)[C@H](CC(=O)O)NC(=O)[C@@H]4CCCN4C(=O)CN(C)C3=O)cc2)cc1 [Example 198] ({CH2CO}-[Ala(morpholin-4-yl)][Bip(4'-COOH)][Bip(4'-NHAc)][Sar]PD[dR]VPARLCG-NH2; thioether N-13)
7,50 to 200,CC(C)C[C@@H]1NC(=O)[C@H](CCCNC(=N)N)NC(=O)[C@H](C2CCCCC2)NC(=O)[C@@H]2CCCN2C(=O)[C@H](C(C)C)NC(=O)[C@@H](CCCNC(=N)N)NC(=O)[C@H](CC(=O)O)NC(=O)[C@H](Cc2cnc[nH]2)NC(=O)CN(C)C(=O)[C@H](Cc2ccc(-c3ccccc3)cc2)NC(=O)[C@H](Cc2ccc(-c3ccccc3)cc2)NC(=O)[C@H](CN2CCOCC2)NC(=O)CSC[C@@H](C(=O)NCC(N)=O)NC1=O [Example 230] ({CH2CO}-[Ala(morpholin-4-yl)][Bip][Bip][Sar]HD[dR]VP[Chg]RLCG-NH2; thioether N-13)
8,50 to 200,CC(=O)Nc1ccc(-c2ccc(C[C@@H]3NC(=O)[C@H](Cc4ccc(-c5ccccc5)cc4)NC(=O)[C@H](CC4CCCCC4)NC(=O)CSC[C@@H](C(=O)NCC(N)=O)NC(=O)[C@H](CC(C)C)NC(=O)[C@H](Cc4cnc[nH]4)NC(=O)[C@H](C4CCCCC4)NC(=O)[C@@H]4CCCN4C(=O)[C@H](CC(N)=O)NC(=O)[C@@H](CCCNC(=N)N)NC(=O)[C@H](CC(=O)O)NC(=O)[C@H](Cc4cnc[nH]4)NC(=O)CN(C)C3=O)cc2)cc1 [Example 301] ({CH2CO}-[Cha][Bip][Bip(4'-NHAc)][Sar]HD[dR]NP[Chg]HLCG-NH2; thioether N-13)
9,< 50,CC[C@H](C)[C@@H]1NC(=O)[C@@H](CCCNC(=N)N)NC(=O)[C@H](CC(=O)O)NC(=O)[C@H](Cc2cnc[nH]2)NC(=O)CN(C)C(=O)[C@H](Cc2ccc(-c3ccc(NC(=O)c4cc(C(=O)O)ccc4C)cc3)cc2)NC(=O)[C@H](Cc2ccc(-c3ccccc3)cc2)NC(=O)[C@H](CC2CCCCC2)NC(=O)CSC[C@@H](C(=O)NCC(N)=O)NC(=O)[C@H](CC(C)C)NC(=O)[C@H](Cc2cnc[nH]2)NC(=O)[C@H](C(C)C)NC(=O)[C@@H]2CCCN2C1=O [Example 450] ({CH2CO}-[Cha][Bip][X77][Sar]HD[dR]IPVHLCG-NH2; thioether N-13)
